Assay results from US6426331B1, “Inhibitors of STAT function” (Tularik Inc., priority 1998, dated 2002).

biological target: T1, STAT6 (Homo sapiens, UniProt P42226); test: Inhibition of STAT6 binding (duplex formation); details: Table 1; inhibitors of STAT6 binding (duplex formation)
T1 sequence (P42226 1-847): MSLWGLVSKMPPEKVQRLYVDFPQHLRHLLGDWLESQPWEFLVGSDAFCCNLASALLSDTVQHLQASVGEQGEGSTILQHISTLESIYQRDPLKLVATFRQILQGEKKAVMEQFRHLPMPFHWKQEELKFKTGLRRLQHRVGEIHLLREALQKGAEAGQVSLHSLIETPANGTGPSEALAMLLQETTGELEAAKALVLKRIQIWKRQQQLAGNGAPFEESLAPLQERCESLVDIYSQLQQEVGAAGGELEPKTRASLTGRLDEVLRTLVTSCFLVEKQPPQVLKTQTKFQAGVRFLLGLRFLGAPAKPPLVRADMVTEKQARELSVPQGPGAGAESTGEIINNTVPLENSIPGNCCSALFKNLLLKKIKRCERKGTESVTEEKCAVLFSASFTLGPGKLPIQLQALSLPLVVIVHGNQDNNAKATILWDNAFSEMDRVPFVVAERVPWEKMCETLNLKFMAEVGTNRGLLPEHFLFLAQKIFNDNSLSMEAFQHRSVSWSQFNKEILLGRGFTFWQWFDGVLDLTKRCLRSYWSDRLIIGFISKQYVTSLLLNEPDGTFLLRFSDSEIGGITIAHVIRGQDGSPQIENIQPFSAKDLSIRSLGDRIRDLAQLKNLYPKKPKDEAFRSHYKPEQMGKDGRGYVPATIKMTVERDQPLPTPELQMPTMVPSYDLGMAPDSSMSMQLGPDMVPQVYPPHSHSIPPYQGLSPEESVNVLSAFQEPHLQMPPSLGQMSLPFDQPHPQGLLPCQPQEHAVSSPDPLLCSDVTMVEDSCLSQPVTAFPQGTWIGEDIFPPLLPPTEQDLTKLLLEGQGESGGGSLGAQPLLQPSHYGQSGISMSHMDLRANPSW
Procedure: The compounds of the present invention can be evaluated for STAT binding activity using methods such as those described in U.S. Pat. No. 6,207,391 (for STAT6 binding). Other assays for STAT binding can be found in, for example, U.S. Pat. Nos. 5,618,693, 5,639,858 and 5,756,700.
Using methods similar to those described in Examples 1 and 2, the compounds provided in Table 1 were prepared and evaluated as inhibitors of STAT6 binding (duplex formation). The assay is described in U.S. Pat. No. 6,207,391, filed Mar. 31, 1998. In each of the tables below: a + symbol indicates and IC50 of >100 μM; a ++ symbol indicates and IC50 of 50-100 μM; a +++ symbol indicates and IC50 of 1-50 μM; and a ++++ symbol indicates and IC50 of <1.0 μM.

Structure (SMILES) | IC50 [nM]
CC(C)(C)[C@H](NC(=O)/C=C/c1ccc(C(O)C(=O)O)cc1)C(=O)N1C[C@H](N(Cc2ccccc2)Cc2ccccc2)C[C@H]1C(=O)N(Cc1ccccc1)c1ccc(C(N)=O)cc1 (some centres unmarked) [drawing 46: H, —N(Bn)2,4-CONH2, H] | > 100000
CC(C)(C)[C@H](NC(=O)/C=C/c1ccc(C(O)C(=O)O)cc1)C(=O)N1C[C@H](NC(=O)c2ccccc2)C[C@H]1C(=O)N(Cc1ccccc1)c1ccc(C(N)=O)cc1 (some centres unmarked) [drawing 46: H, —NHBz, 4-CONH2, H] | 1000 to 50000

Results, then the molecule that gave them:

IC50 [nM] | Structure (SMILES)
1000 to 50000 | CC(C)(C)[C@H](NC(=O)/C=C/c1ccc(C(O)C(=O)O)cc1)C(=O)N1CCC[C@H]1C(=O)N(Cc1ccc(CN)cc1)c1ccc(C(N)=O)cc1 (some centres unmarked) [drawing 46: H, H, 4-CONH2,4-CH2NH2]
1000 to 50000 | CC(C)(C)[C@H](NC(=O)/C=C/c1ccc(C(O)C(=O)O)cc1)C(=O)N1C[C@H](N)C[C@H]1C(=O)N(Cc1ccccc1)c1ccc(C(N)=O)cc1 (some centres unmarked) [drawing 46: H, —NH2,4-CONH2, H]
1000 to 50000 | CC(C)C(=O)N[C@@H]1C[C@@H](C(=O)N(Cc2ccccc2)c2ccc(C(N)=O)cc2)N(C(=O)[C@@H](NC(=O)/C=C/c2ccc(C(O)C(=O)O)cc2)C(C)(C)C)C1 (some centres unmarked) [drawing 46: H, —NHCOCH(CH3)2, 4-CONH2, H]
> 100000 | CC(C)(C)[C@H](NC(=O)/C=C/c1ccc(C(O)C(=O)O)cc1)C(=O)N1CCC[C@H]1C(=O)N(Cc1ccccc1)c1ccc(C(=O)Nc2ccccc2)cc1 (some centres unmarked) [drawing 46: H, H, 4-CONHPh, H]
1000 to 50000 | CC(=O)N[C@@H]1C[C@@H](C(=O)N(Cc2ccccc2)c2ccc(C(N)=O)cc2)N(C(=O)[C@@H](NC(=O)/C=C/c2ccc(C(O)C(=O)O)cc2)C(C)(C)C)C1 (some centres unmarked) [drawing 46: H, —NHAc, 4-CONH2, H]
1000 to 50000 | CC(=O)N[C@H]1C[C@@H](C(=O)N(Cc2ccccc2)c2ccc(C(N)=O)cc2)N(C(=O)[C@@H](NC(=O)/C=C/c2ccc(C(O)C(=O)O)cc2)C(C)(C)C)C1 (some centres unmarked) [drawing 46: —NHAC, H, 4-CONH2, H]

same assay, conditions: Table 2; STAT6 binding

IC50 [nM] | Structure (SMILES)
1000 to 50000 | CC(C)(C)[C@H](NC(=O)/C=C/c1ccc(P(=O)(O)O)cc1)C(=O)N1CCC[C@H]1C(=O)N(c1ccccc1)c1ccc(C(N)=O)cc1
1000 to 50000 | CC(C)(C)[C@H](NC(=O)/C=C/c1ccc(P(=O)(O)O)c(O)c1)C(=O)N1CCC[C@H]1C(=O)N(c1ccccc1)c1ccc(C(N)=O)cc1
1000 to 50000 | CC(C)(C)[C@H](NC(=O)/C=C/c1ccc(OC(F)(C(=O)O)C(=O)O)cc1)C(=O)N1CCC[C@H]1C(=O)N(c1ccccc1)c1ccc(C(N)=O)cc1
> 100000 | CC(C)(C)[C@H](NC(=O)/C=C/c1cccc(CP(=O)(O)O)c1)C(=O)N1CCC[C@H]1C(=O)N(c1ccccc1)c1ccc(C(N)=O)cc1
> 100000 | CC(C)(C)[C@H](NC(=O)/C=C/c1ccc(C(=O)O)cc1)C(=O)N1CCC[C@H]1C(=O)N(c1ccccc1)c1ccc(C(N)=O)cc1

same assay, conditions: Table 3; STAT6 binding

Structure (SMILES) | IC50 [nM]
CC(C)(C)C(NC(=O)C=Cc1ccc(OP(=O)(O)O)cc1)C(=O)N1CCCC1C(=O)N(c1ccccc1)c1ccc(C(N)=O)cc1 (centres unmarked) [drawing 69: CONH2] | < 1000
COC(=O)c1ccc(N(C(=O)C2CCCN2C(=O)C(NC(=O)C=Cc2ccc(OP(=O)(O)O)cc2)C(C)(C)C)c2ccccc2)cc1 (centres unmarked) [drawing 69: CO2CH3] | < 1000
Cc1ccc(N(C(=O)C2CCCN2C(=O)C(NC(=O)C=Cc2ccc(OP(=O)(O)O)cc2)C(C)(C)C)c2ccccc2)cc1 (centres unmarked) [drawing 69: CH3] | < 1000
CC(C)(C)C(NC(=O)C=Cc1ccc(OP(=O)(O)O)cc1)C(=O)N1CCCC1C(=O)N(c1ccccc1)c1ccc(I)cc1 (centres unmarked) [drawing 69: I] | < 1000

same assay, conditions: Table 4; STAT6 binding

Structure (SMILES) | IC50 [nM]
CC(=O)NCc1ccc(CN(C(=O)C2CCCN2C(=O)C(NC(=O)C=Cc2ccc(OP(=O)(O)O)cc2)C(C)(C)C)c2ccc(C(N)=O)cc2)cc1 (centres unmarked) [drawing 70: 4-CONH2,4-CH2NHAc] | < 1000
CC(=O)NCc1ccc(CN(C(=O)C2CCCN2C(=O)C(NC(=O)C=Cc2ccc(OP(=O)(O)O)cc2)C(C)(C)C)c2cccc(C(N)=O)c2)cc1 (centres unmarked) [drawing 70: 3-CONH2,4-CH2NHAc] | < 1000
CC(C)(C)c1ccc(CN(C(=O)C2CCCN2C(=O)C(NC(=O)C=Cc2ccc(OP(=O)(O)O)cc2)C(C)(C)C)c2ccccc2)cc1 (centres unmarked) [drawing 70: H, 4-t-butyl] | 1000 to 50000
